Measurements published in patent publication US20220211752A1, “METHIONINE AND CYSTEINE DEPRIVATION DIET AND FORMULATIONS TO INCREASE EFFECTIVENESS OF CANCER THERAPY” (THE TRUSTEES OF COLUMBIA UNIVERSITY IN THE CITY OF NEW YORK, priority 2020, published 2022).
Peptide text beside a SMILES is read from it. * marks the point of attachment. Cbz = O=C(OCc1ccccc1)*; CH2F = FC*

How the values were obtained:
mouse glioma cell lines = assay: Dose response cell viability, IKE with or without CMD; type: cell-based; settings: 10 uM Ferrostatin-1
Source text: (§1) A basis for the invention that depriving glioma cells of sulfur containing amino acids (cystine and methionine) will result in lower levels of glutathione (which normally protects cells from lipid peroxidation) and therefore would sensitize the glioma cells to ferroptosis inducing drugs. […] Both these effects were rescued by ferrostatin.

MG4 cells = assay: Bodipy-C11 flow cytometry, radiation plus CMD; type: cell-based, mouse; settings: Ferrostatin-1
Source text: (§2) Adherent cells were lifted using TrypLE (ThermoFisher™ Scientific).
Radiation is a known ferroptosis inducer. […] Treatment of both mouse glioma cells (MG1 and MG4) and human GBM cells (TS543) is shown.

MG1 cells [1] = assay: Live cell confocal microscopy of Bodipy-C11 lipid peroxidation; type: cell-based, mouse
Method: 1.3×10^5 MG1 cells were plated on poly-L-lysine coated 35 mm glass-bottom dishes (MatTek™ life sciences) for 24 hours. Cells were incubated for 30 minutes in basal media (DMEM (Gibco™ 11965092) with 0.5% FBS (Gibco™ 16000044), antibiotic-antimycotic (Thermo Scientific™ 15240096), N2 supplement (Thermo Fisher Scientific™, 17502-048), and 10 ng/ml each of recombinant human PDGF-AA (Peprotech, 100-13A) and FGFb (Peprotech™. 10018B50UG)) media containing 5 μM BODIPY-C11. Media were replaced with fresh basal media and cells were imaged on a Nikon™ A1RMP confocal microscope at 37° C. in a humidified chamber with 5% C02. Time-lapse images were acquired using a 40×/1.3 NA oil immersion objective and focus was maintained using the Perfect Focus™ System. Excitation was achieved using 488 nm and 561 nm laser illumination; emission of the oxidized and reduced forms of BODIPY-C11 was captured using a 525/50 and a 595/50 filter, respectively. At time 0, RSL3 (500 nM) or RSL3 (500 nM)+Ferrostatin (2 μM) were added and images were acquired every 30 seconds for a total of 30 minutes. Images were exported to ImageJ™ for analysis.

MG1 cells [2] = assay: Bodipy-C11 flow cytometry, IKE with or without CMD; type: cell-based, mouse; settings: 10 uM Ferrostatin-1
Source text: as §2, §1

[3] = system: human diffuse astrocytoma slice culture; assay: H2DCFDA flow cytometry of human glioma slice cultures, IKE plus radiation; type: cell-based; settings: 10 μM IKE, 0 or 2 Gy radiation for 24 hours
Source text: To further understand the translational relevance of these findings to human glioma samples, an acute organotypic slice culture model was used. […] The tissue was placed on a Millicell™ cell culture insert in treatment media. This media comprised of DMEM+ Hams-F12 without cysteine or methionine (MyBioSource, MBS652871) or DMEM+ Hams-F12 with cysteine and methione to create the to varied conditions that would undergo radiation or IKE treatment.
Horizontal bars indicate H2DCFDA-positive cell populations.

MG3 cells = assay: 384-well dose-response to GPX4 inhibitors with or without CMD; type: cell-based, mouse; settings: dose response assays, with or without 2 uM Ferrostatin-1
Method: (§3) Cell viability was assessed using the Cell-Titer^Glo™ luminescence assay. Murine glioma cells were plated in triplicate at a density of 6,000 cells per well in a 96-well plate (ThermoFisher Scientific™). Twenty-four hours after plating, media was removed and treatment media was added. Viability was assessed 24 hours after treatment. Human glioma cells were plated at a density of 2,000 cells per well. Cells were plated in normal media or cysteine/methionine deprived media. Twenty-four hours after plating, media was changed to begin drug treatment. Forty-eight hours after plating, luminescence was measured.
(§4) Averages across 3 independent experiments are reported. For experiments conducted in 384-well plates, mouse glioma cells were plated at a density of 1,600 cells per well and human glioma cells were plated at a density of 1,000 cells per well. The assays as described above were quantified using Cell-Titer Glo™ (Promega™) ATP based bioluminescence. To determine cell viability, a 50% Cell Titer Glo™ and 50% cell culture medium was added to each well and incubated at room temperature for 10 minutes. Luminescence was assessed on a Promega™ GloMax™ Microplate Reader.

MG1 cells [4] = assay: Dose-response of MG1 cells to RSL3 plus cell death inhibitors; type: cell-based, mouse; settings: 5 uM ZVAD-FMK; 2 uM Nec-1s
Method: as §3, §4

glioma cell lines = assay: Cell viability dose-response to RSL3 (Cell-Titer Glo); type: cell-based, mouse, human
Method: as §3, §4
To test this, media was adapted for cell culture based on the previous ferroptosis permissive glioma culture methods. […]

[5] = system: human primary glioblastoma; assay: H2DCFDA flow cytometry of ex vivo organotypic slice cultures, RSL3 with or without CMD; type: cell-based; settings: 100 nM RSL3 plus CMD
Method: Mice were sacrificed by cervical dislocation.
Slice cultures were dissociated in papain (9.5 mL DPBS, 500 μL papain, 1.67 μL 6 M NaOH, 2 mg L-cysteine, 100 μL DNAse) and incubated in a warm bath shaker at 37° C. for 30 minutes. After centrifugation at 400×g for 5 minutes, the papain was aspirated and slices were resuspended in ice cold PBS and triturated with glass tip Pasteur pipettes. This process was repeated one time and then the cell suspension was resuspended in a 30% sucrose solution and spun at 1000×g for 5 minutes. The cell suspension was resuspended in PBS and stained with Calcein Blue (final concentration 5 μM) and H2DCFDA (final concentration 10 μM), incubated in a water bath at 37° C. for 10 minutes. Suspensions were spun down at 500×g for 5 minutes and resuspended in PBS and taken for flow cytometric analysis on a LSRIII Fortessa™ machine. Cell and Slice culture suspensions were filtered in polystyrene flow tubes (Fisher Scientific™). Data were collected on an LSRIII Fortessa™ flow analyzer and analyzed using FlowJo™ v10.
The slices were treated with RSL3 and assayed via flow cytometry for levels of reactive oxygen species (ROS) using H2DCFDA.

CCOC(=O)c1ccc(NC2CCCCC2)c(N)c1 [Ferrostatin-1]
rescue of CMD enhanced IKE induced cell death (mouse glioma cell lines): rescued
rescue of lipid peroxidation from radiation plus CMD (MG4 cells): complete rescue
effect on RSL3 induced lipid peroxidation (MG1 cells [1]; 500 nM RSL3 and 2 uM Ferrostatin-1): prevented this lipid peroxidation
rescue of CMD plus IKE lipid peroxidation (MG1 cells [2]): rescued

CC(C)Oc1ccc(C(=O)Cn2ccnc2)cc1-n1c(CN2CCN(C(=O)COc3ccc(Cl)cc3)CC2)nc2ccccc2c1=O [IKE, imidazole ketone erastin]
H2DCFDA-positive cells, interaction with radiation [3]: synergy of radiation with IKE treatment

Cc1onc(C(=O)N2CCN(C(c3ccc(Cl)cc3)c3ccc(Cl)cc3)CC2)c1[N+](=O)[O-] [ML-210]
ferroptosis in combination with CMD (MG3 cells): synergistic enhancement of ferroptosis with CMD

CN1C(=O)NC(Cc2c[nH]c3c(Cl)cccc23)C1=O (stereo not shown) [Nec-1s]
rescue of RSL3 mediated cell death (MG1 cells [4]): not rescuable

COC(=O)c1ccc([C@@H]2c3[nH]c4ccccc4c3C[C@@H](C(=O)OC)N2C(=O)CCl)cc1 [RSL3]
ferroptosis in combination with CMD (MG3 cells): synergistic enhancement of ferroptosis with CMD
cell viability with CMD plus RSL3 (glioma cell lines; dose response curves, dual treatment (FIG. 30)): stark difference in cell viability with dual treatment
sensitivity to ferroptosis by RSL3 (glioma cell lines; five cell lines assayed, 384-well dose-response): baseline sensitivity to ferroptosis
lipid peroxidation (Bodipy-C11 green fluorescence shift) (MG1 cells [1]; 500 nM RSL3): induction of lipid peroxidation
reactive oxygen species (ROS) levels, H2DCFDA [5]: increased ROS to levels equivalent to a high dose of RSL3 (500 nM)

COC(=O)C[C@H](NC(=O)[C@H](C)NC(=O)[C@@H](NC(=O)OCc1ccccc1)C(C)C)C(=O)CF [ZVAD-FMK] (Cbz-Val-Ala-Asp(OMe)-CH2F)
rescue of RSL3 mediated cell death (MG1 cells [4]): not rescuable
